Results on 1 molecule are retold here after ChEMBL document CHEMBL4680289, “10-(4-Phenylpiperazine-1-carbonyl)acridin-9(10H)-ones and related compounds: Synthesis, antiproliferative activity and inhibition of tubulin polymerization” (Bioorg Med Chem Lett, 2021).

The structures appear in SMILES notation. Activity calls are given as the source filed them. The rule behind the calls is not given here.

The test system of test [1] is K562. Briefly: Induction of apoptosis in human K562 cells assessed as viable cells at 0.3 micromol/L measured after 48 hrs by Annexin V-FITC/7-AAD staining based flow cytometric analysis (reference value: 92.85 %). The following applies: K562, 48 h, dose 0.3 µmol/L, read-out: Activity. In kind it is functional.
Test [2] deals with K562. Briefly: Induction of apoptosis in human K562 cells measured after 48 hrs by Annexin V-FITC/7-AAD staining based flow cytometric analysis. The class given is functional, cell-based. The following applies: dose 0.01-3 µmol/L.
The subject of test [3] is K562. Put plainly: Induction of apoptosis in human K562 cells assessed as necrotic cells at 0.1 uM measured after 24 hrs by Annexin V-FITC/7-AAD staining based flow cytometric analysis relative to control. In kind it is functional.
Test [4] relates to K562. Put plainly: Induction of apoptosis in human K562 cells at 30 nM measured after 48 hrs by Annexin V-FITC/7-AAD staining based flow cytometric analysis. In kind it is functional, cell-based.
In test [5] the test system is K562. Put plainly: Induction of apoptosis in human K562 cells assessed as necrotic cells at 0.1 uM measured after 6 hrs by Annexin V-FITC/7-AAD staining based flow cytometric analysis relative to control. In kind it is functional.
Test [6] concerns K562. Briefly: Induction of apoptosis in human K562 cells assessed as early apoptotic cells at 0.03 micromol/L measured after 48 hrs by Annexin V-FITC/7-AAD staining based flow cytometric analysis (reference value: 4.2 %). The following applies: dose 0.03 µmol/L, at 0.03 µM. The class given is functional.
Test [7] deals with K562. Briefly: Induction of apoptosis in human K562 cells assessed as viable cells at 0.1 uM measured after 72 hrs by Annexin V-FITC/7-AAD staining based flow cytometric analysis relative to control. The following applies: read-out: Activity. The class given is functional.
Test [8] concerns K562. Briefly: Induction of apoptosis in human K562 cells assessed as viable cells at 0.1 micromol/L measured after 48 hrs by Annexin V-FITC/7-AAD staining based flow cytometric analysis (reference value: 92.85 %). The class given is functional. The following applies: K562, 48 h, dose 0.1 µmol/L, read-out: Activity.
Test [9] has as its system K562. Put plainly: Induction of apoptosis in human K562 cells assessed as late apoptotic cells at 0.03 micromol/L measured after 48 hrs by Annexin V-FITC/7-AAD staining based flow cytometric analysis (reference value: 2.49 %). The class given is functional. The following applies: dose 0.03 µmol/L, at 0.03 µM.
Test [10] concerns K562. Briefly: Induction of apoptosis in human K562 cells assessed as late apoptotic cells at 0.3 micromol/L measured after 48 hrs by Annexin V-FITC/7-AAD staining based flow cytometric analysis (reference value: 2.49 %). In kind it is functional. The following applies: dose 0.3 µmol/L, at 0.3 µM.
In test [11] the test system is K562. Put plainly: Induction of apoptosis in human K562 cells assessed as late apoptotic cells at 0.1 uM measured after 72 hrs by Annexin V-FITC/7-AAD staining based flow cytometric analysis relative to control. In kind it is functional.
In test [12] the test system is K562. Briefly: Induction of apoptosis in human K562 cells assessed as necrotic cells at 0.01 micromol/L measured after 48 hrs by Annexin V-FITC/7-AAD staining based flow cytometric analysis (reference value: 0.46 %). In kind it is functional. The following applies: dose 0.01 µmol/L, at 0.01 µM.
For test [13], the system named is K562. Briefly: Induction of apoptosis in human K562 cells assessed as early apoptotic cells at 0.1 uM measured after 6 hrs by Annexin V-FITC/7-AAD staining based flow cytometric analysis relative to control. The class given is functional.
Test [14] deals with K562. Put plainly: Antiproliferative activity against human K562 cells assessed as cell growth inhibition measured after 48 hrs by MTT assay. The class given is functional, cell-based. The following applies: K562, 48 h.

With `COc1cc(OC)cc(N2CCN(C(=O)n3c4ccccc4c(=O)c4ccccc43)CC2)c1`, the viability at 0.3 µM in the test on K562 [1] worked out at 42.6%. The Activity result in the test with K562 [2] is “Dose-dependent effect”; in the test on K562 [3], 0.23%; in the test with K562 [5], 0.24%; with K562 [6] it was 21.52%; in the test with K562 [9], 25.72%; in the test with K562 [10], 32.32%. Further, the Activity in the test with K562 [11] stood at 65.69%; in the test with K562 [12], 0.27%; with K562 [13], 4.84%. Besides, the outcome in the test on K562 [4] was Active. The viability at 0.1 µM worked out at 18.2% with K562 [7] and 41.5% in the test with K562 [8]. Further, in the test with K562 [14], the IC50 came out at 13 nM.
